Experimental data published in patent US12687539B2 (priority 2019, dated 2026).

Columns and labels:
[1] = test system: DAS5G11E7 monoclonal antibody; format: binding, mouse
rat = details: in vivo; cited from earlier work

## CC(=O)OC[C@]12CCC(C)=C[C@H]1O[C@@H]1[C@H](O)[C@@H](OC(C)=O)[C@@]2(C)[C@]12CO2 [DAS, diacetoxyscirpenol]
[1]
  Cross reactivity: 100%
rat
  LDS: 0.75 mg/kg
